# Values of other authors, collected in patent publication US12023406B2, “Gastric residence systems with release rate-modulating films” (Lyndra Therapeutics, Inc., priority 2017, dated 2024).
# Conditions: gastric pH range
smiles,measurement,value
Cc1nc2n(c(=O)c1CCN1CCC(c3noc4cc(F)ccc34)CC1)CCCC2 [risperidone],solubility at pH 1.5 versus pH 4.8,significantly higher at the more acidic end of the gastric pH range
